The source of these data is patent US11000033B2, “Ketone or oxime compound, and herbicide” (NISSAN CHEMICAL CORPORATION, priority 2014, dated 2021).

Common to all, as to format: in vivo
Data set [1] deals with Echinochloa oryzacola Vasing. As to the kind of experiment: Test Example 2: herbicidal activity, application during weed generation in submerged conditions (symbol A). To be noted: Table 23; application herbicide amount 320 g/ha; grade 0-5 by criteria of Test Example 1. An outline of the steps:
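Treatment timing was the one- to two-leaf stage, with diluted emulsifiable compound dropped onto the paddy water (depth 4 cm) over alluvial soil. All three species grew from a mixed sowing in a 25° C. to 30° C. greenhouse. Injury was judged by eye 3 weeks on.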

The subject of data set [2] is Echinochloa crus-galli var. crus-galli. As to the kind of experiment: Test Example 3: herbicidal effect by foliage application, Wagner pot (symbol H). The settings on record: application herbicide amount 320 g/ha. Summed up:
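The compound, formulated as an emulsion and diluted with water to a predetermined rate, is applied uniformly to leaves of two-week-old seedlings growing in submerged alluvial soil at 25–30 °C. Rice is included. Each plant is assessed 3 weeks later using defined criteria.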

The subject of data set [3] is Digitaria ciliaris. As to the kind of experiment: Test Example 4: herbicidal effect by soil treatment (symbol F). The settings on record: 320 g/ha. Summed up:
(§1)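 Seeds were sown in sterilized diluvial soil, covered with about 1.5 cm of soil, and the soil surface was sprayed with a water-diluted emulsion of the compound at a predetermined rate. Plants grew in a greenhouse at 25° C. to 30° C.; effects were scored visually 3 weeks after application.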

The subject of a further data set is Avena fatua. In words: Test Example 4: herbicidal effect by soil treatment (symbol I). The settings on record: 320 g/ha. An outline of the steps: as §1
Another data set deals with Alopecurus myosuroides. As to the kind of experiment: Test Example 4: herbicidal effect by soil treatment (symbol J). The settings on record: 320 g/ha. An outline of the steps: as §1
The test system of data set [4] is Abutilon theophrasti. In words: Test Example 4: herbicidal effect by soil treatment (symbol M). To be noted: 320 g/ha. Summed up: as §1
The subject of data set [5] is Veronica persica. As to the kind of experiment: Test Example 4: herbicidal effect by soil treatment (symbol R). The settings on record: 320 g/ha. Summed up:
as §1

The test system of data set [6] is beet. In words: Test Example 4: effect on crop by soil treatment (symbol f). To be noted: 320 g/ha. An outline of the steps:
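Plants are raised in a greenhouse (25° C. to 30° C.) from spot-sown seed, which sits under about 1.5 cm of sterilized diluvial soil in a box shared with weed species.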

Data set [7] has as its system Digitaria ciliaris. As to the kind of experiment: Test Example 5: herbicidal effect by foliage application, plastic box (symbol F). The settings on record: 320 g/ha, 3 weeks after application. An outline of the steps: (§2)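 Leaf-applied emulsion, water-diluted to a preset herbicide dose, on two-week-old seedlings raised in a 25° C. to 30° C. greenhouse; injury rated at 3 weeks using earlier criteria.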

Another data set relates to Apera spica-venti. In words: Test Example 5: herbicidal effect by foliage application, plastic box (symbol L). To be noted: 320 g/ha, 3 weeks after application. Summed up:
as §2

Data set [8] has as its system Abutilon theophrasti. In words: Test Example 5: herbicidal effect by foliage application, plastic box (symbol M). The settings on record: 320 g/ha, 3 weeks after application. An outline of the steps:
as §2

A further data set relates to Amaranthus retroflexus. As to the kind of experiment: Test Example 5: herbicidal effect by foliage application, plastic box (symbol N). The settings on record: 320 g/ha, 3 weeks after application. An outline of the steps: as §2
The test system of data set [9] is Veronica persica. As to the kind of experiment: Test Example 5: herbicidal effect by foliage application, plastic box (symbol R). To be noted: 320 g/ha, 3 weeks after application. Summed up: as §2
A further data set has as its system soybean. In words: Test Example 5: effect on crop by foliage application, plastic box (symbol d). To be noted: 320 g/ha, 3 weeks after application. An outline of the steps:
(§3)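 Plants were raised from seed in a greenhouse (25° C. to 30° C.) after sowing in a plastic box of sterilized diluvial soil.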

The test system of a further data set is rice plant. In words: Test Example 5: effect on crop by foliage application, plastic box (symbol b). The settings on record: 320 g/ha, 3 weeks after application. An outline of the steps:
as §3

The subject of data set [10] is beet. As to the kind of experiment: Test Example 5: effect on crop by foliage application, plastic box (symbol f). To be noted: 320 g/ha, 3 weeks after application. An outline of the steps: as §3

The structures appear in SMILES notation.

Consider `CON=C(C)CC1CC(OC(=O)COCC(F)(F)F)=C(c2c(C)cc(C)cc2C)C1=O` (stereo not shown) [1-092], for which, in data set [1], the “Herbicidal effect grade, A: Echinochloa oryzacola Vasing.” value is recorded as 5 (Herbicidal ratio of 90% or more (almost completely withered)). Also, the “herbicidal effect on H (Echinochloa crus-galli var. crus-galli), grade 0-5” value (“herbicidal effect on H” below) in data set [2] was 5 (Herbicidal ratio of 90% or more (almost completely withered)). The “F: Digitaria ciliaris, herbicidal effect grade” value in the data set on Digitaria ciliaris [3] is recorded as 5 (Herbicidal ratio of 90% or more (almost completely withered)). In addition, the “I: Avena fatua, herbicidal effect grade” value in the data set with Avena fatua is 2 (Herbicidal ratio of 20% or higher and lower than 40%). Moreover, the “J: Alopecurus myosuroides, herbicidal effect grade” value (“J: Alopecurus myosuroides” for short) with Alopecurus myosuroides is 4 (Herbicidal ratio of 70% or higher and lower than 90%). The “M: Abutilon theophrasti, herbicidal effect grade” value in the data set on Abutilon theophrasti [4] was 3 (Herbicidal ratio of 40% or higher and lower than 70%). Further, the “R: Veronica persica, herbicidal effect grade” value in the data set with Veronica persica [5] is 0 (Herbicidal ratio of 5% or lower (almost no effect)). Further, in the data set on beet [6], the “f: beet, effect grade on crop” value was 0 (Herbicidal ratio of 5% or lower (almost no effect)). In the data set with Digitaria ciliaris [7], the “F: Digitaria ciliaris, herbicidal effect (criteria 0-5)” value (from here on “F: Digitaria ciliaris … (criteria 0-5)”) is reported as 5 (Herbicidal ratio of 90% or more (almost completely withered)). In addition, in the data set with Apera spica-venti, the “L: Apera spica-venti, herbicidal effect (criteria 0-5)” value (shortened to “L: Apera spica-venti”) was 5 (Herbicidal ratio of 90% or more (almost completely withered)). Also, in the data set with Abutilon theophrasti [8], the “M: Abutilon theophrasti, herbicidal effect (criteria 0-5)” value was 3 (Herbicidal ratio of 40% or higher and lower than 70%). Further, the “N: Amaranthus retroflexus, herbicidal effect (criteria 0-5)” value (shortened to “N: Amaranthus retroflexus”) with Amaranthus retroflexus is 3 (Herbicidal ratio of 40% or higher and lower than 70%). Further, the “R: Veronica persica, herbicidal effect (criteria 0-5)” value (“R: Veronica persica … (criteria 0-5)” below) in the data set on Veronica persica [9] was 0 (Herbicidal ratio of 5% or lower (almost no effect)). The “d: soybean, effect on crop (criteria 0-5)” value (“d: soybean, effect on crop” below) in the data set with soybean is listed as 0 (Herbicidal ratio of 5% or lower (almost no effect)). Besides, the “b: directly sowed rice plant, effect on crop (criteria 0-5)” value (“b: directly sowed rice plant, effect” below) in the data set with rice plant is 5 (Herbicidal ratio of 90% or more (almost completely withered)). Also, the “f: beet, effect on crop (criteria 0-5)” value in the data set on beet [10] was 0 (Herbicidal ratio of 5% or lower (almost no effect)).

For the compound `COCC(=O)OC1=C(c2c(C)cc(C)cc2C)C(=O)C(CC(C)=NOC)C1` (stereo not shown) [1-093], in data set [1], the “Herbicidal effect grade, A: Echinochloa oryzacola Vasing.” value was 5 (Herbicidal ratio of 90% or more (almost completely withered)). In data set [2], the “herbicidal effect on H” value was 5 (Herbicidal ratio of 90% or more (almost completely withered)). The “F: Digitaria ciliaris, herbicidal effect grade” value with Digitaria ciliaris [3] was 5 (Herbicidal ratio of 90% or more (almost completely withered)). The “I: Avena fatua, herbicidal effect grade” value in the data set on Avena fatua is 3 (Herbicidal ratio of 40% or higher and lower than 70%). Besides, in the data set on Alopecurus myosuroides, the “J: Alopecurus myosuroides” value is on record as 5 (Herbicidal ratio of 90% or more (almost completely withered)). In addition, the “M: Abutilon theophrasti, herbicidal effect grade” value in the data set with Abutilon theophrasti [4] is 4 (Herbicidal ratio of 70% or higher and lower than 90%). Further, the “R: Veronica persica, herbicidal effect grade” value in the data set with Veronica persica [5] is 0 (Herbicidal ratio of 5% or lower (almost no effect)). The “f: beet, effect grade on crop” value in the data set on beet [6] is listed as 0 (Herbicidal ratio of 5% or lower (almost no effect)). For the same compound, the “F: Digitaria ciliaris … (criteria 0-5)” value in the data set with Digitaria ciliaris [7] is recorded as 5 (Herbicidal ratio of 90% or more (almost completely withered)). In the data set with Apera spica-venti, the “L: Apera spica-venti” value is recorded as 5 (Herbicidal ratio of 90% or more (almost completely withered)). Also, in the data set on Abutilon theophrasti [8], the “M: Abutilon theophrasti, herbicidal effect (criteria 0-5)” value was 4 (Herbicidal ratio of 70% or higher and lower than 90%). The “N: Amaranthus retroflexus” value in the data set on Amaranthus retroflexus is 4 (Herbicidal ratio of 70% or higher and lower than 90%). Moreover, the “R: Veronica persica … (criteria 0-5)” value in the data set with Veronica persica [9] was 3 (Herbicidal ratio of 40% or higher and lower than 70%). Moreover, the “d: soybean, effect on crop” value in the data set with soybean is 3 (Herbicidal ratio of 40% or higher and lower than 70%). In addition, the “b: directly sowed rice plant, effect” value in the data set with rice plant is reported as 5 (Herbicidal ratio of 90% or more (almost completely withered)). The “f: beet, effect on crop (criteria 0-5)” value in the data set on beet [10] is reported as 0 (Herbicidal ratio of 5% or lower (almost no effect)).

In the case of `CON=C(C)CC1CC(OC(=O)COCc2ccccc2)=C(c2c(C)cc(C)cc2C)C1=O` (stereo not shown) [1-094], in [1], the “Herbicidal effect grade, A: Echinochloa oryzacola Vasing.” value is given as 5 (Herbicidal ratio of 90% or more (almost completely withered)). Also, in [2], the “herbicidal effect on H” value is given as 5 (Herbicidal ratio of 90% or more (almost completely withered)). The “F: Digitaria ciliaris, herbicidal effect grade” value with Digitaria ciliaris [3] is given as 5 (Herbicidal ratio of 90% or more (almost completely withered)). The “I: Avena fatua, herbicidal effect grade” value with Avena fatua was 3 (Herbicidal ratio of 40% or higher and lower than 70%). Besides, in the data set on Alopecurus myosuroides, the “J: Alopecurus myosuroides” value is reported as 5 (Herbicidal ratio of 90% or more (almost completely withered)). Also, the “M: Abutilon theophrasti, herbicidal effect grade” value in the data set with Abutilon theophrasti [4] was 2 (Herbicidal ratio of 20% or higher and lower than 40%). In the data set on Veronica persica [5], the “R: Veronica persica, herbicidal effect grade” value is given as 0 (Herbicidal ratio of 5% or lower (almost no effect)). In addition, the “f: beet, effect grade on crop” value in the data set on beet [6] is recorded as 0 (Herbicidal ratio of 5% or lower (almost no effect)). Further, the “F: Digitaria ciliaris … (criteria 0-5)” value with Digitaria ciliaris [7] is reported as 5 (Herbicidal ratio of 90% or more (almost completely withered)). For the same compound, the “L: Apera spica-venti” value in the data set with Apera spica-venti is 5 (Herbicidal ratio of 90% or more (almost completely withered)). Further, in the data set on Abutilon theophrasti [8], the “M: Abutilon theophrasti, herbicidal effect (criteria 0-5)” value is 4 (Herbicidal ratio of 70% or higher and lower than 90%). The “N: Amaranthus retroflexus” value in the data set on Amaranthus retroflexus is 2 (Herbicidal ratio of 20% or higher and lower than 40%). Moreover, in the data set with Veronica persica [9], the “R: Veronica persica … (criteria 0-5)” value is 3 (Herbicidal ratio of 40% or higher and lower than 70%). In addition, the “d: soybean, effect on crop” value with soybean was 2 (Herbicidal ratio of 20% or higher and lower than 40%). Moreover, the “b: directly sowed rice plant, effect” value in the data set on rice plant is 5 (Herbicidal ratio of 90% or more (almost completely withered)). Moreover, the “f: beet, effect on crop (criteria 0-5)” value in the data set with beet [10] is on record as 0 (Herbicidal ratio of 5% or lower (almost no effect)).

Consider `CC#CC(=O)OC1=C(c2c(C)cc(C)cc2C)C(=O)C(CC(C)=NOC)C1` (stereo not shown) [1-095], for which, in data set [1], the “Herbicidal effect grade, A: Echinochloa oryzacola Vasing.” value is reported as 5 (Herbicidal ratio of 90% or more (almost completely withered)). Further, the “herbicidal effect on H” value in data set [2] is reported as 5 (Herbicidal ratio of 90% or more (almost completely withered)). For the same compound, the “F: Digitaria ciliaris, herbicidal effect grade” value with Digitaria ciliaris [3] is 5 (Herbicidal ratio of 90% or more (almost completely withered)). The “I: Avena fatua, herbicidal effect grade” value in the data set on Avena fatua was 3 (Herbicidal ratio of 40% or higher and lower than 70%). The “J: Alopecurus myosuroides” value with Alopecurus myosuroides is 5 (Herbicidal ratio of 90% or more (almost completely withered)). The “M: Abutilon theophrasti, herbicidal effect grade” value in the data set on Abutilon theophrasti [4] was 4 (Herbicidal ratio of 70% or higher and lower than 90%). Further, in the data set on Veronica persica [5], the “R: Veronica persica, herbicidal effect grade” value is 1 (Herbicidal ratio of 5% or higher and lower than 20%). Also, the “f: beet, effect grade on crop” value with beet [6] is given as 0 (Herbicidal ratio of 5% or lower (almost no effect)). For the same compound, in the data set on Digitaria ciliaris [7], the “F: Digitaria ciliaris … (criteria 0-5)” value was 5 (Herbicidal ratio of 90% or more (almost completely withered)). In the data set on Apera spica-venti, the “L: Apera spica-venti” value is reported as 5 (Herbicidal ratio of 90% or more (almost completely withered)). The “M: Abutilon theophrasti, herbicidal effect (criteria 0-5)” value in the data set with Abutilon theophrasti [8] is 4 (Herbicidal ratio of 70% or higher and lower than 90%). Further, the “N: Amaranthus retroflexus” value with Amaranthus retroflexus is 3 (Herbicidal ratio of 40% or higher and lower than 70%). Moreover, the “R: Veronica persica … (criteria 0-5)” value in the data set on Veronica persica [9] is 3 (Herbicidal ratio of 40% or higher and lower than 70%). In addition, the “d: soybean, effect on crop” value in the data set on soybean is 2 (Herbicidal ratio of 20% or higher and lower than 40%). Also, in the data set on rice plant, the “b: directly sowed rice plant, effect” value is 5 (Herbicidal ratio of 90% or more (almost completely withered)). In addition, in the data set with beet [10], the “f: beet, effect on crop (criteria 0-5)” value is recorded as 0 (Herbicidal ratio of 5% or lower (almost no effect)).
